Results as given in patent publication US8114408B2 (priority 2007, dated 2012).

Test system: mice
Conditions: mouse, in vivo, sc

Substance: 3 (RRQRRF) [compound 3]
- immune response in immunized mice (ELISA, FIG. 2): either an immune response occurred only in some individuals or a weak immune response was shown
